{"source": "patent US10307418B2", "about": "“Azole pharmaceutical formulations for parenteral administration and methods for preparing and using the same as treatment of diseases sensitive to azole compounds” (Platform Brightworks Two, Ltd., priority 2010, dated 2019)", "key": {"[1]": {"experiment": "Plasma pharmacology after IV injection in mice", "quoted_text": "(§1) Swiss Webster mice were used for pharmacokinetic studies of ITZA and its analogs. The dilation of the vein was accomplished by warming up the mice using a heat lamp. […] Mice were allowed to recover and blood samples were obtained through cardiac puncture under general anesthesia with Isoflurane/oxygen by vaporizer at various time points. Plasma was obtained by centrifugation of blood sample at 3,200 rpm for 5 min. at 4° C. Plasma proteins were precipitated by adding acetonitrile (twice the volume of plasma). The mixture was vortexed for 30 seconds and centrifuged for 5 min. at 14,000 rpm. The supernatant was saved and was injected into the HPLC to determine the respective drug concentrations.\n(§2) Unless specified, the analogous experiments were performed using POSA as an alternative to ITZA; Swiss Webster mice of both sexes with a body weight of 25-30 g were used for the in vivo pharmacology experiments (Harlan-Sprague-Dawley, Houston, Tex.). The animals were allowed a minimum of 7 days after arrival to accommodate to the new environment and allowed free access to commercial feed and tap water prior to and during the experimentation period. The animals were housed in an Association for the Assessment and Accreditation of Laboratory Animal Care International (AAALAC)-approved facility that meets the requirements of the USDA, NIH, and DHHS.\n(§3) The ITZA dose of 5 mg/kg BW was determined to be a suitable test dose that could be administered to the mice as a slow (3-4 min) IV bolus injection without requiring sedation, but could be performed with only minimal physical restraint of the animals in a standard funnel-type cage.\n(§4) The ITZA was formulated in the H3 solvent system described above as the preferred solvent to a stock concentration of 4-5 mg/mL and then diluted with NS (ratio 1:1) so the intended dose (5.0 mg/kg BW) could be injected in a tail vein in a total volume of approximately 100 μL. […] No sedative premedication was used for the mice in this experiment to avoid the possible induction of microsomal liver enzymes that could modify ITZA metabolism. Thus, the animals were unanesthetized, being only physically restrained during and immediately following the drug injection.\n(§5) Blood samples (0.5-1.0 mL) were drawn through cardiac puncture into heparinized tubes at selected time points prior to the drug infusion (“blank”), and from 5 min to 1 hour after drug injection for determination of ITZA concentrations, and for 5 min to about 7 hrs in the POSA experiment. The mice were exposed to 2% -4% isoflurane for general anesthesia. Blood samples were obtained through cardiac puncture and immediately deposited in heparinized microcentrifuge tubes."}, "[2]": {"experiment": "Maximum solubility of ITZA and azole analogues in solvents (HPLC)", "type": "physicochemical", "details": "for solubility at 30 min: organic solvent or mixture, thermodynamic from solid", "method": "ITZA and its analogues were dissolved in various solvents incubated at 37° C. for 30 minutes, cooled down to room temperature, centrifuged at 14,000 rpm for 1 min. The supernatant was analyzed using HPLC to determine the maximum solubility of ITZA and its azole analogues.\nIn a first step the maximum ITZA solubility in various single solvents was determined. To this end, ITZA and its analogs were dissolved in various solvents, incubated at 37° C. for 30 minutes, cooled down to room temperature, centrifuged at 14,000 rpm for 1 min. The supernatant was analyzed using HPLC to determine the maximum solubility of the respective agent.\nThe solubility of ITZA was determined in several individual vehicles. Briefly, a known amount of ITZA drug, formulated as a powder (Sigma Inc., St Louis, Mo.), was equilibrated in the respective solvent at RT over 1-4 hours. An aliquot was removed, filtered, and prepared for HPLC to determine maximum solubility at room temperature. Based on the ITZA solubility in each vehicle, different solvents were mixed according to the cosolvency principle in an attempt to arrive at an enhanced stable solubility. […] The stock formulation was then diluted with a final diluent, i.e. NS or D5W or DlOW, to yield a stable use-formulation. The desired range of the final use-formulation was between 1 and 5 mg/mL, as it would result in a final volume that could be safely and conveniently infused intravascularly.\nAn excess of ITZA as a powder was added to a multitude of chemical solvents (Table 1) at RT. Each mixture was intermittently vortexed, placed in a dark environment and checked visually for up to 4 hours for evidence of solubilization. Following centrifugation to remove solid particles, small samples were withdrawn after consecutive time intervals and the ITZA concentration was determined by HPLC as described."}, "[3]": {"details": "cited from earlier work"}, "[4]": {"experiment": "Stability of ITZA/POSA in solvent vehicles (HPLC)", "type": "physicochemical", "parameters": "POSA concentration: unit: mg/mL", "details": "for POSA concentration: single determination"}, "in vivo": {"experiment": "in vivo", "details": "both, Swiss Webster, mouse, plasma, iv, 5 mg/kg", "quoted_text": "as §1, §2, §3, §4, §5"}, "[5]": {"details": "POSA in H3G/5% Dextrose., 24 hr"}}, "note": "“And” between values parts separate entries of the source, which are not always exact repeats. Identical values can stand only once. Like-named read-outs stand apart in the source and are kept apart here.", "data": [{"smiles": "CC[C@@H]([C@H](C)O)n1ncn(-c2ccc(N3CCN(c4ccc(OC[C@@H]5CO[C@@](Cn6cncn6)(c6ccc(F)cc6F)C5)cc4)CC3)cc2)c1=O", "note": "[POSA, posaconazole]", "values": [{"measurement": "tolerability of IV injection (in words)", "setting": "[1]; 5.0 mg/kg BW, slow injection over 3-4 min", "result": "well accepted"}, {"measurement": "apparent in vivo half-life", "setting": "[1]; 5 mg/kg IV", "result": "6 to 7", "unit": "h"}, {"measurement": "time plasma concentrations remain in the fungi-toxic range", "setting": "[1]; IV dose of 5 mg/kg", "result": "in excess of one hour"}, {"measurement": "peak concentration (plasma)", "setting": "[1]; IV injection of 5 mg/kg over 4 min", "result": "3.2 to 3.3", "unit": "µg/mL"}, {"measurement": "solubility at 30 min", "setting": "[2]; solvent H3D (no benzyl alcohol), solvent H3D (no benzyl alcohol), single determination, read-out: Azole solubility, [Drug] mg/mL", "result": 33.8, "unit": "mg/mL"}, {"measurement": "solubility at 30 min", "setting": "[2]; solvent H3D (no benzyl alcohol), solvent H3D (no benzyl alcohol), read-out: Azole solubility, Average mg/mL", "result": 35.3, "unit": "mg/mL"}, {"measurement": "Azole solubility, [Drug] mg/mL", "setting": "[2]; solvent H3D (no benzyl alcohol), single determination", "result": "35.08 mg/mL and 37.14 mg/mL"}, {"measurement": "solubility at 30 min", "setting": "[2]; solvent H3G (no benzyl alcohol), solvent H3G (no benzyl alcohol), single determination, read-out: Azole solubility, [Drug] mg/mL", "result": 30.6, "unit": "mg/mL"}, {"measurement": "solubility at 30 min", "setting": "[2]; solvent H3G (no benzyl alcohol), solvent H3G (no benzyl alcohol), read-out: Azole solubility, Average mg/mL", "result": 32.2, "unit": "mg/mL"}, {"measurement": "Azole solubility, [Drug] mg/mL", "setting": "[2]; solvent H3G (no benzyl alcohol), single determination", "result": "33.86 mg/mL and 32.04 mg/mL"}, {"measurement": "known plasma half-life", "setting": "[3]; literature (Ref 24, 32, 42, 45)", "result": "25 to 35", "unit": "h"}, {"measurement": "half-life after oral administration", "setting": "[3]; oral drug, literature", "result": "15 to 30", "unit": "h"}, {"measurement": "% of 0 hr", "setting": "[4]; POSA in H3G, 0 hr", "result": 100, "unit": "%"}, {"measurement": "average", "setting": "[4]; POSA in H3G, 0 hr", "result": 3.70, "unit": "mg/mL"}, {"measurement": "POSA concentration", "setting": "[4]; POSA in H3G, 0 hr", "result": "3.76 and 3.69 and 3.66"}, {"measurement": "% of 0 hr", "setting": "[4]; POSA in H3G, 2 hr", "result": 102, "unit": "%"}, {"measurement": "average", "setting": "[4]; POSA in H3G, 2 hr", "result": 3.78, "unit": "mg/mL"}, {"measurement": "POSA concentration", "setting": "[4]; POSA in H3G, 2 hr", "result": "3.93 and 3.73 and 3.67"}, {"measurement": "% of 0 hr", "setting": "[4]; POSA in H3G, 4 hr", "result": 114, "unit": "%"}, {"measurement": "average", "setting": "[4]; POSA in H3G, 4 hr", "result": 4.23, "unit": "mg/mL"}, {"measurement": "POSA concentration", "setting": "[4]; POSA in H3G, 4 hr", "result": "3.98 and 4.33 and 4.37"}, {"measurement": "% of 0 hr", "setting": "[4]; POSA in H3G, 6 hr", "result": 114, "unit": "%"}, {"measurement": "average", "setting": "[4]; POSA in H3G, 6 hr", "result": 4.23, "unit": "mg/mL"}, {"measurement": "POSA concentration", "setting": "[4]; POSA in H3G, 6 hr", "result": "3.98 and 4.33 and 4.37"}, {"measurement": "% of 0 hr", "setting": "[4]; POSA in H3G, 8 hr", "result": 97, "unit": "%"}, {"measurement": "average", "setting": "[4]; POSA in H3G, 8 hr", "result": 3.57, "unit": "mg/mL"}, {"measurement": "POSA concentration", "setting": "[4]; POSA in H3G, 8 hr", "result": "3.68 and 3.47 and 3.57"}, {"measurement": "% of 0 hr", "setting": "[4]; POSA in H3G, 24 hr", "result": 99, "unit": "%"}, {"measurement": "average", "setting": "[4]; POSA in H3G, 24 hr", "result": 3.65, "unit": "mg/mL"}, {"measurement": "POSA concentration", "setting": "[4]; POSA in H3G, 24 hr", "result": "3.73 and 3.52 and 3.70"}, {"measurement": "% of 0 hr", "setting": "[4]; POSA in H3G/5% Dextrose., 0 hr", "result": 100, "unit": "%"}, {"measurement": "POSA concentration", "setting": "[4]; POSA in H3G/5% Dextrose., 0 hr", "result": "1.76 and 1.68"}, {"measurement": "% of 0 hr", "setting": "[4]; POSA in H3G/5% Dextrose., 2 hr", "result": 109, "unit": "%"}, {"measurement": "POSA concentration", "setting": "[4]; POSA in H3G/5% Dextrose., 2 hr", "result": "1.84 and 1.81 and 2.02"}, {"measurement": "% of 0 hr", "setting": "[4]; POSA in H3G/5% Dextrose., 4 hr", "result": 113, "unit": "%"}, {"measurement": "POSA concentration", "setting": "[4]; POSA in H3G/5% Dextrose., 4 hr", "result": "1.92 and 1.91 and 2.03"}, {"measurement": "% of 0 hr", "setting": "[4]; POSA in H3G/5% Dextrose., 6 hr", "result": 109, "unit": "%"}, {"measurement": "POSA concentration", "setting": "[4]; POSA in H3G/5% Dextrose., 6 hr", "result": "1.75 and 1.93 and 2.01"}, {"measurement": "% of 0 hr", "setting": "[4]; POSA in H3G/5% Dextrose., 8 hr", "result": 106, "unit": "%"}, {"measurement": "POSA concentration", "setting": "[4]; POSA in H3G/5% Dextrose., 8 hr", "result": "1.71 and 1.89 and 1.92"}, {"measurement": "% of 0 hr", "setting": "[4]; [5]", "result": 105, "unit": "%"}, {"measurement": "POSA concentration", "setting": "[4]; [5]", "result": "1.78 and 1.80 and 1.87"}, {"measurement": "% of 0 hr", "setting": "[4]; POSA in H3d, 0 hr", "result": 100, "unit": "%"}, {"measurement": "average", "setting": "[4]; POSA in H3d, 0 hr", "result": 3.78, "unit": "mg/mL"}, {"measurement": "POSA concentration", "setting": "[4]; POSA in H3d, 0 hr", "result": "3.82 and 3.75 and 3.78"}, {"measurement": "% of 0 hr", "setting": "[4]; POSA in H3d, 2 hr", "result": 100, "unit": "%"}, {"measurement": "average", "setting": "[4]; POSA in H3d, 2 hr", "result": 3.79, "unit": "mg/mL"}, {"measurement": "POSA concentration", "setting": "[4]; POSA in H3d, 2 hr", "result": "3.67 and 3.81 and 3.89"}, {"measurement": "% of 0 hr", "setting": "[4]; POSA in H3d, 4 hr", "result": 112, "unit": "%"}, {"measurement": "average", "setting": "[4]; POSA in H3d, 4 hr", "result": 4.24, "unit": "mg/mL"}, {"measurement": "POSA concentration", "setting": "[4]; POSA in H3d, 4 hr", "result": "4.00 and 4.15 and 4.56"}, {"measurement": "% of 0 hr", "setting": "[4]; POSA in H3d, 6 hr", "result": 118, "unit": "%"}, {"measurement": "average", "setting": "[4]; POSA in H3d, 6 hr", "result": 4.45, "unit": "mg/mL"}, {"measurement": "POSA concentration", "setting": "[4]; POSA in H3d, 6 hr", "result": "4.20 and 4.32 and 4.82"}, {"measurement": "% of 0 hr", "setting": "[4]; POSA in H3d, 8 hr", "result": 106, "unit": "%"}, {"measurement": "average", "setting": "[4]; POSA in H3d, 8 hr", "result": 3.99, "unit": "mg/mL"}, {"measurement": "POSA concentration", "setting": "[4]; POSA in H3d, 8 hr", "result": "4.18 and 3.77 and 4.03"}, {"measurement": "% of 0 hr", "setting": "[4]; POSA in H3d, 24 hr", "result": 101, "unit": "%"}, {"measurement": "average", "setting": "[4]; POSA in H3d, 24 hr", "result": 3.83, "unit": "mg/mL"}, {"measurement": "POSA concentration", "setting": "[4]; POSA in H3d, 24 hr", "result": "3.81 and 3.75 and 3.92"}, {"measurement": "% of 0 hr", "setting": "[4]; POSA in H3d/5% Dextrose, 0 hr", "result": 100, "unit": "%"}, {"measurement": "POSA concentration", "setting": "[4]; POSA in H3d/5% Dextrose, 0 hr", "result": "1.75 and 1.77 and 1.81"}, {"measurement": "% of 0 hr", "setting": "[4]; POSA in H3d/5% Dextrose, 2 hr", "result": 100, "unit": "%"}, {"measurement": "POSA concentration", "setting": "[4]; POSA in H3d/5% Dextrose, 2 hr", "result": "1.77 and 1.74 and 1.83"}, {"measurement": "% of 0 hr", "setting": "[4]; POSA in H3d/5% Dextrose, 4 hr", "result": 111, "unit": "%"}, {"measurement": "POSA concentration", "setting": "[4]; POSA in H3d/5% Dextrose, 4 hr", "result": "1.88 and 1.81 and 2.20"}, {"measurement": "% of 0 hr", "setting": "[4]; POSA in H3d/5% Dextrose, 6 hr", "result": 109, "unit": "%"}, {"measurement": "POSA concentration", "setting": "[4]; POSA in H3d/5% Dextrose, 6 hr", "result": "1.95 and 1.93 and 1.94"}, {"measurement": "% of 0 hr", "setting": "[4]; POSA in H3d/5% Dextrose, 8 hr", "result": 102, "unit": "%"}, {"measurement": "POSA concentration", "setting": "[4]; POSA in H3d/5% Dextrose, 8 hr", "result": "1.86 and 1.68 and 1.90"}, {"measurement": "% of 0 hr", "setting": "[4]; POSA in H3d/5% Dextrose, 24 hr", "result": 103, "unit": "%"}, {"measurement": "POSA concentration", "setting": "[4]; POSA in H3d/5% Dextrose, 24 hr", "result": "1.78 and 1.79 and 1.93"}, {"measurement": "half-life", "setting": "in vivo", "result": "6 to 7", "unit": "h"}]}]}
